{"source": "patent US6524630B2", "about": "“Use of cocoa procyanidins combined with acelylsalicyclic acid as an anti-platelet therapy” (Mars, Incorporated, priority 2000, dated 2003)", "assay_type_in_all_cases": "in vivo, human", "key": {"[1]": {"tested_on": "leukotrienes C4, D4 and E4", "assay": "Immunoassay of leukotrienes in blood after treatment", "description": "Blood was drawn from the subjects prior to consumption of any food. After the initial blood was drawn, the subjects were divided into four groups. One group consumed 81 mg of aspirin (acetylsalicylic acid) (Bayer pediatric aspirin). A second group consumed a high cocoa polyphenol beverage consisting of 18.75 g of procyanidin enriched cocoa powder derived from Sulawesi beans (containing 51.1 mg/g of total procyanidins, 11.2% fat, 0.092% caffeine, 1.618% theobromine) and 12.5 g of sucrose mixed with 300 ml of distilled water. A third group consumed the high cocoa procyanidin beverage and 81 mg of baby aspirin. The final group consumed 81 mg of baby aspirin and a procyanidin deficient cocoa beverage consisting of 18.75 g of cocoa powder (containing 0.45 mg/g total procyanidins, 9.87% fat, 2.063% theobromine, 0.234% caffeine) and 12.5 g of sucrose mixed with 300 ml of distilled water. During the test period the subjects were permitted to consume water, caffeine-free diet soda, bagels, low fat cream cheese, and bananas. Blood was drawn from each of the subjects two hours and six hours post consumption of the treatment. Venous blood was aspirated into evacuated tubes containing 0.5 ml of 3.2% buffered sodium citrate solution. The blood samples were also analyzed for changes in leukotriene, prostacyclin and thromboxane levels resulting from the four treatment regimes. Immunoassay procedures were conducted as described by Westcott et al, “Analysis Of 6-Keto PGF1 Alpha, 5-HETE, And LTC4 In Rat Lung: Comparison Of GM/MS, RIA and EIA”, Prostaglandins 32:857-873, 1986; Yakota et al, “Enzyme Immunoassay Of Prostanoids In Blood And Urine”, Adv. Prostgl.Thrombox. Leukot. Res. 15:33-34, 1985; and Schramm et al, “Differential Effects of Small and Large Molecular Weight Phytochemicals on Endothelial Cell Eicosanoid Secretion” J Agric Food Chem 46:1900-1905, 1998. The prostacyclin (PGI2) metabolite 6-keto prostaglandin F1-alpha was measured with Cayman enzyme immunoassay #515211, the thromboxane (TXA2) metabolite TXB2 was measured with Cayman enzyme immunoassay 519031, and leukotrienes C4, D4 and E4 were quantified using the immunoassay EA-39 from Oxford Biomedical Research. P values were calculated using the paired sample T-test. Values of p<0.05 were considered to be statistically significant."}, "[2]": {"tested_on": "prostacyclin (PGI2) metabolite 6-keto prostaglandin F1-alpha", "assay": "Enzyme immunoassay of prostacyclin metabolite in blood after treatment", "description": "Blood was drawn from the subjects prior to consumption of any food. After the initial blood was drawn, the subjects were divided into four groups. One group consumed 81 mg of aspirin (acetylsalicylic acid) (Bayer pediatric aspirin). A second group consumed a high cocoa polyphenol beverage consisting of 18.75 g of procyanidin enriched cocoa powder derived from Sulawesi beans (containing 51.1 mg/g of total procyanidins, 11.2% fat, 0.092% caffeine, 1.618% theobromine) and 12.5 g of sucrose mixed with 300 ml of distilled water. A third group consumed the high cocoa procyanidin beverage and 81 mg of baby aspirin. […] The blood samples were also analyzed for changes in leukotriene, prostacyclin and thromboxane levels resulting from the four treatment regimes. […] The prostacyclin (PGI2) metabolite 6-keto prostaglandin F1-alpha was measured with Cayman enzyme immunoassay #515211, the thromboxane (TXA2) metabolite TXB2 was measured with Cayman enzyme immunoassay 519031, and leukotrienes C4, D4 and E4 were quantified using the immunoassay EA-39 from Oxford Biomedical Research. P values were calculated using the paired sample T-test. […]"}, "[3]": {"tested_on": "thromboxane (TXA2) metabolite TXB2", "assay": "Enzyme immunoassay of thromboxane metabolite in blood after treatment", "description": "Blood was drawn from the subjects prior to consumption of any food. After the initial blood was drawn, the subjects were divided into four groups. One group consumed 81 mg of aspirin (acetylsalicylic acid) (Bayer pediatric aspirin). A second group consumed a high cocoa polyphenol beverage consisting of 18.75 g of procyanidin enriched cocoa powder derived from Sulawesi beans (containing 51.1 mg/g of total procyanidins, 11.2% fat, 0.092% caffeine, 1.618% theobromine) and 12.5 g of sucrose mixed with 300 ml of distilled water. A third group consumed the high cocoa procyanidin beverage and 81 mg of baby aspirin. The final group consumed 81 mg of baby aspirin and a procyanidin deficient cocoa beverage consisting of 18.75 g of cocoa powder (containing 0.45 mg/g total procyanidins, 9.87% fat, 2.063% theobromine, 0.234% caffeine) and 12.5 g of sucrose mixed with 300 ml of distilled water. During the test period the subjects were permitted to consume water, caffeine-free diet soda, bagels, low fat cream cheese, and bananas. Blood was drawn from each of the subjects two hours and six hours post consumption of the treatment. Venous blood was aspirated into evacuated tubes containing 0.5 ml of 3.2% buffered sodium citrate solution.\nThe blood samples were also analyzed for changes in leukotriene, prostacyclin and thromboxane levels resulting from the four treatment regimes. Immunoassay procedures were conducted as described by Westcott et al, “Analysis Of 6-Keto PGF1 Alpha, 5-HETE, And LTC4 In Rat Lung: Comparison Of GM/MS, RIA and EIA”, Prostaglandins 32:857-873, 1986; Yakota et al, “Enzyme Immunoassay Of Prostanoids In Blood And Urine”, Adv. Prostgl.Thrombox. Leukot. Res. 15:33-34, 1985; and Schramm et al, “Differential Effects of Small and Large Molecular Weight Phytochemicals on Endothelial Cell Eicosanoid Secretion” J Agric Food Chem 46:1900-1905, 1998. The prostacyclin (PGI2) metabolite 6-keto prostaglandin F1-alpha was measured with Cayman enzyme immunoassay #515211, the thromboxane (TXA2) metabolite TXB2 was measured with Cayman enzyme immunoassay 519031, and leukotrienes C4, D4 and E4 were quantified using the immunoassay EA-39 from Oxford Biomedical Research. P values were calculated using the paired sample T-test. Values of p<0.05 were considered to be statistically significant."}, "[4]": {"tested_on": "P-selectin (CD62P)", "assay": "Ex vivo flow cytometry of platelet surface expression of P-selectin after treatment", "description": "The subjects used in the previous study also participated in the surface protein expression study. The methodology with respect to treatment regimes and collection of blood was identical to that which was outlined in the previous example. Within 10 minutes of draw, whole blood was incubated in polystyrene tubes for 5 minutes at room temperature with 10 μm HEPES buffer (pH 7.4, unstimulated control), 20 or 100 μm ADP or 20 μtm epinephrine (BioData, Horsham, Pa.) in the presence or absence of the peptide […] (Sigma, St. Louis, Mo.). After 5 minutes, samples were suspended in 1 ml HEPES buffer and 100 μm of sample were transferred to tubes containing saturating concentrations (20 μm ) each of the following fluorescent-labeled monoclonal antibodies: PAC1-fluorescein isothiocyanate (FITC), anti-CD62P-phycoerythrin (PE) and anti-CD42a-PerCP. PAC1 recognizes the activated conformation of the fibrinogen-binding receptor GPIIb-IIIa and anti-CD62P recognizes P-selectin, present on the surface of activated platelets. Anti-CD42a recognizes GP1b-1X, which is on the surface of both activated and resting platelets. Mouse IgG, FITC and mouse IgG, PE were used as isotype controls. The […]-peptide was used to block binding of the PAC1 antibody to platelets and thus set the negative control marker on the flow cytometer. Antibodies and isotype controls were purchased from Becton Dickinson Immunocytometry Systems, Inc., San Jose, Calif. Whole blood samples in the presence and absence of the agonists ADP and epinephrine were incubated with monoclonal antibodies or isotype control for 20 minutes in the dark at room temperature. Samples were then fixed in filtered 1% paraformaldehyde (pH 7.2) and stored in the dark at 2-8° C. All samples were analyzed within 48 hours on a FACScan flow cytometer using […] software. The flow cytometer performance was verified using 1, 2 and 10 μm calibration beads (Becton Dickinson Immunocytometry Systems, Inc., San Jose, Calif. and Flow Cytometry Systems, Research Triangle Park, N.C.). Twenty thousand events were collected in list mode with all light-scatter and fluorescence parameters in logarithmic code. Platelets were gated on the basis of […] CD42a expression. Activated platelets were defined as the percentage of CD42a positive events coexpressing the activated conformation of GPIIb-IIa or P-selectin. Platelet microparticles were defined as the percentage of CD42a positive events less than 2 μm in size. To perform the statistical analysis of the results, Friedman's repeated measures ANOVA on ranks (RM ANOVA on ranks) was used to compare the baseline, 2 and 6 hour results in each treatment group. Tukey's all pairwise comparison was used for post hoc multiple comparisons. […] The platelet-dependent hemostasis data were also analyzed for statistical differences among treatment groups for each time point, baseline, 2 and 6 hour."}, "[5]": {"tested_on": "activated conformation of the GPIIb/IIIa platelet receptor", "assay": "Ex vivo flow cytometry (PAC1) of activated GPIIb/IIIa on platelets after treatment", "conditions": "at 6 hours compared to baseline", "description": "The subjects used in the previous study also participated in the surface protein expression study. The methodology with respect to treatment regimes and collection of blood was identical to that which was outlined in the previous example. Within 10 minutes of draw, whole blood was incubated in polystyrene tubes for 5 minutes at room temperature with 10 μm HEPES buffer (pH 7.4, unstimulated control), 20 or 100 μm ADP or 20 μtm epinephrine (BioData, Horsham, Pa.) in the presence or absence of the peptide […] (Sigma, St. Louis, Mo.). After 5 minutes, samples were suspended in 1 ml HEPES buffer and 100 μm of sample were transferred to tubes containing saturating concentrations (20 μm ) each of the following fluorescent-labeled monoclonal antibodies: PAC1-fluorescein isothiocyanate (FITC), anti-CD62P-phycoerythrin (PE) and anti-CD42a-PerCP. PAC1 recognizes the activated conformation of the fibrinogen-binding receptor GPIIb-IIIa and anti-CD62P recognizes P-selectin, present on the surface of activated platelets. […] All samples were analyzed within 48 hours on a FACScan flow cytometer using […] software. […] Twenty thousand events were collected in list mode with all light-scatter and fluorescence parameters in logarithmic code. […] The platelet-dependent hemostasis data were also analyzed for statistical differences among treatment groups for each time point, baseline, 2 and 6 hour."}}, "note": "Marks after values point to notes of the source that are not given here."}
{"molecule": "CC(=O)Oc1ccccc1C(=O)O", "note": "[Aspirin, acetylsalicylic acid]", "values": [{"measurement": "LT/PG12 ratio", "setting": "[1]; 2 hrs post consumption", "value": 99}, {"measurement": "Leukotrienes", "setting": "[1]; 2 hrs post consumption", "value": 101}, {"measurement": "LT/PG12 ratio", "setting": "[1]; 6 hrs post consumption", "value": 100}, {"measurement": "Leukotrienes", "setting": "[1]; 6 hrs post consumption", "value": 100}, {"measurement": "Prostacyclin", "setting": "[2]; 2 hrs post consumption", "value": 103}, {"measurement": "Prostacyclin", "setting": "[2]; 6 hrs post consumption", "value": 104}, {"measurement": "TXB2/PG12 ratio", "setting": "[3]; 2 hrs post consumption", "value": 89}, {"measurement": "Thromboxane", "setting": "[3]; 2 hrs post consumption", "value": 91}, {"measurement": "TXB2/PG12 ratio", "setting": "[3]; 6 hrs post consumption", "value": 86}, {"measurement": "Thromboxane", "setting": "[3]; 6 hrs post consumption", "value": 89}, {"measurement": "% CD62 + Platelets, Median", "setting": "[4]; 20 μM ADP, 0 Hour (before consumption)", "value": 64.5, "unit": "%"}, {"measurement": "% CD62 + Platelets, Median", "setting": "[4]; 20 μM ADP, 2 Hour", "value": 60.3, "unit": "%"}, {"measurement": "% CD62 + Platelets, Median", "setting": "[4]; 20 μM ADP, 6 Hour", "value": 60.8, "unit": "%"}, {"measurement": "% CD62 + Platelets, Median", "setting": "[4]; 20 μM Epinephrine, 0 Hour (before consumption)", "value": 7.9, "unit": "%"}, {"measurement": "% CD62 + Platelets, Median", "setting": "[4]; 20 μM Epinephrine, 2 Hour", "value": 6.2, "unit": "%"}, {"measurement": "% CD62 + Platelets, Median", "setting": "[4]; 20 μM Epinephrine, 6 Hour", "value": "4.7* %"}, {"measurement": "% CD62 + Platelets, Median", "setting": "[4]; Unstimulated, 0 Hour (before consumption)", "value": 1.4, "unit": "%"}, {"measurement": "% CD62 + Platelets, Median", "setting": "[4]; Unstimulated, 2 Hour", "value": 1.5, "unit": "%"}, {"measurement": "% CD62 + Platelets, Median", "setting": "[4]; Unstimulated, 6 Hour", "value": 1.3, "unit": "%"}, {"measurement": "epinephrine-induced P-selectin expression", "setting": "[4]; at 6 hours compared to baseline, in words", "value": "suppressed"}, {"measurement": "epinephrine-induced GPIIb/IIIa expression", "setting": "[5]", "value": "suppressed"}]}
